Activity calls are given as the source filed them. The rule behind the calls is not given here.

The target of this assay is Chaperone protein DnaK (Escherichia coli (strain K12)) (UniProt P0A6Y8). In words: binders of DnaK substrate-binding domain, biophysical, NMR, chaperone (AID 1033). The note with it: Purified DnaK SBD, NMR ligand binding.
Sequence of Chaperone protein DnaK (Escherichia coli (strain K12)) (P0A6Y8 whole entry, looked up, the tested form may be a part): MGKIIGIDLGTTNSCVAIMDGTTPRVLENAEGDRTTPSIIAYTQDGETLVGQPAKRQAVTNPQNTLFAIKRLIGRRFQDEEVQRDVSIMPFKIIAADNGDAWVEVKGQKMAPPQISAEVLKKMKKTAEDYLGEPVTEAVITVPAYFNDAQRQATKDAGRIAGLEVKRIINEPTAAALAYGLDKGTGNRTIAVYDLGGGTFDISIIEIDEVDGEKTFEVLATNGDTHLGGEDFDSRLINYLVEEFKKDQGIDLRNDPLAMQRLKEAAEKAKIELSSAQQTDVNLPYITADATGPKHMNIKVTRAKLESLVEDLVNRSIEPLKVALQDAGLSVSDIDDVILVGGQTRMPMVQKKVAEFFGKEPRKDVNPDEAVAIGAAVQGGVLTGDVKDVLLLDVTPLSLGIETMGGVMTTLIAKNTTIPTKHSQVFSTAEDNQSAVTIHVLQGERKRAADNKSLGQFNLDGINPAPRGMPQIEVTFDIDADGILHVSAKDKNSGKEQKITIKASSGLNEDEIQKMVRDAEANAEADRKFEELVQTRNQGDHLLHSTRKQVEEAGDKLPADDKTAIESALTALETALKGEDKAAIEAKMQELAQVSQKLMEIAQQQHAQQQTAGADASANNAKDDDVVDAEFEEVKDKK
Consider `Cc1ccc(SCc2cc(=O)n3[nH]c(C)nc3n2)cc1`, for which the Kd is > 4 mM (inactive).

For `Cc1nnsc1C(=O)Nc1ccccn1`, the Kd is > 4 mM (inactive).

Take `COC(=O)c1ccc2snnc2c1`: the Kd is > 4 mM (inactive).

`Cc1cc(F)c(F)c(C(=O)NC2CC2)c1Cl`: the Kd is > 4 mM (inactive).

In the case of `CC(C)CCCC1(C)C=Cc2c(O)c3c(c(CCC(C)C)c2O1)OC12C(CC4CC1C(C)(C)OC2(CCC(C)C(=O)O)C4O)C3=O` (stereo unspecified), the Kd is > 4 mM (inactive).

Turning to `NC(=O)c1ccc(-c2csnn2)cc1`, the Kd was > 4 mM (inactive).

On to `CC12CN3CC(C)(CN(C1)C3c1cccs1)C2O` (stereo unspecified), for which the Kd was > 4 mM (inactive).

`O=C(C1CCNCC1)N1CCCCCC1`: the Kd is > 4 mM (inactive).

In the case of `Cc1nnc(SCC(N)=O)c2ccccc12`, the Kd is > 4 mM (inactive).

For the compound `Cc1cc(C(=O)Nc2sc(C)c(C)c2C#N)c(C)o1`, the Kd is > 4 mM (inactive).

Take `Nc1ncnc(NCCCO)c1[N+](=O)[O-]`: the Kd was > 4 mM (inactive).

With `Nc1nncn1C(=O)c1ccccc1Cl`, the Kd was > 4 mM (inactive).

`c1ccc(CCN2CCN(CCc3ccccn3)CC2)nc1`: the Kd was > 4 mM (inactive).

For the compound `COc1ccccc1Nc1nncc(=O)[nH]1`, the Kd is > 4 mM (inactive).

As for `Cc1nc2ccccc2c2c1C(=O)N(N)C2=O`, the Kd was > 4 mM (inactive).

For `Cc1ccnc(NS(=O)(=O)c2ccccc2)n1`, the Kd was > 4 mM (inactive).

Consider `CNc1nc(C)nc(-n2nc(C)cc2C)n1`, for which the Kd is > 4 mM (inactive).

For `CC(C)c1c(O)ccc2c1CCC1[C@@](C)(C=O)CCC[C@]21C` (stereo partly specified), the Kd was > 4 mM (inactive).

Turning to `O=C(O)Cn1cc(C(F)(F)F)ccc1=O`, the Kd is > 4 mM (inactive).

For the compound `O=C(NN1C(=O)CSC1=S)c1ccccc1`, the Kd is > 4 mM (inactive).

Turning to `CC(=O)NC(NC(C)=O)c1ccccc1`, the Kd was > 4 mM (inactive).

As to `O=C(O)c1onc2ccccc12`, the Kd is > 4 mM (inactive).

On to `CC(=O)N1CCN(S(=O)(=O)c2ccccc2)CC1`, for which the Kd was > 4 mM (inactive).

Regarding `C[C@@H]1CC[C@]2(C(=O)O)CC[C@]3(C)C(=CCC4[C@@]5(C)CC[C@H](O)C(C)(C)C5CC[C@]43C)C2[C@H]1C` (stereo partly specified), the Kd was > 4 mM (inactive).

As to `O=C(OC[C@H]1O[C@H](OC(=O)c2cc(O)c(O)c(OC(=O)c3cc(O)c(O)c(O)c3)c2)[C@H](OC(=O)c2cc(O)c(O)c(OC(=O)c3cc(O)c(O)c(O)c3)c2)[C@@H](OC(=O)c2cc(O)c(O)c(OC(=O)c3cc(O)c(O)c(O)c3)c2)[C@@H]1OC(=O)c1cc(O)c(O)c(OC(=O)c2cc(O)c(O)c(O)c2)c1)c1cc(O)c(O)c(OC(=O)c2cc(O)c(O)c(O)c2)c1`, the Kd was > 4 mM (inactive).

As for `O=C(COc1ccccc1O)NCCO`, the Kd is > 4 mM (inactive).

Consider `CCCn1c(S(=O)(=O)O)nc2ccccc21`, for which the Kd is > 4 mM (inactive).

Turning to `CCOc1ccc(-c2n[nH]c(=S)n2C)cc1`, the Kd is > 4 mM (inactive).

In the case of `NC(=O)CSc1nc2ccccc2o1`, the Kd was > 4 mM (inactive).

As for `Cc1oc(S(=O)(=O)N2CCCCC2)cc1C(=O)O`, the Kd is > 4 mM (inactive).

As to `Cc1cc(C(=O)NCc2cccs2)c(C)o1`, the Kd was > 4 mM (inactive).

For the compound `Nc1cccc(S(N)(=O)=O)c1`, the Kd is > 4 mM (inactive).

With `NC(=O)c1ccc(N2C(=O)CCC2=O)cc1Cl`, the Kd was > 4 mM (inactive).

Consider `C=C[C@H]1CN2CC[C@H]1C[C@@H]2[C@@H](O)c1ccnc2ccc(OC)cc12`, for which the Kd was > 4 mM (inactive).

Take `CNc1ccccc1C(=O)O`: the Kd was > 4 mM (inactive).

As for `O=C(Nc1cccnc1)c1c(F)c(F)c(F)c(F)c1F`, the Kd is > 4 mM (inactive).

Regarding `CCCCCCCCCCCCCCC(C(=O)O)C(O)(CC(=O)OC)C(=O)O` (stereo unspecified), the Kd was > 4 mM (inactive).

Regarding `NCc1ccc(CN2CCOCC2)cc1`, the Kd is > 4 mM (inactive).

Turning to `Cc1nnc(NCCN2CCOCC2)[nH]c1=O`, the Kd was > 4 mM (inactive).

With `CN(C)C(=O)Nc1ccc2c(c1)nnn2C`, the Kd was > 4 mM (inactive).

In the case of `O=C(Nc1ccon1)c1ccccc1Cl`, the Kd is > 4 mM (inactive).

As to `Cc1cc(C)nc(NC(N)=NCc2ccco2)n1`, the Kd is > 4 mM (inactive).

Take `Cc1nc2ccccc2c(=O)n1CCCO`: the Kd was > 4 mM (inactive).

Regarding `CCOC(=O)c1sc(SC)c2c1CCCC2O` (stereo unspecified), the Kd was > 4 mM (inactive).

With `COc1ccc(S(=O)(=O)N2CCC(C(N)=O)CC2)cc1`, the Kd is > 4 mM (inactive).

In the case of `NC(=O)C1CCN(c2ccc(Cl)nn2)CC1`, the Kd was > 4 mM (inactive).

For `COc1ccc(C(=O)O)cc1OC`, the Kd was > 4 mM (inactive).

On to `N#Cc1cnc(N2CCCCC2)nc1N`, for which the Kd was > 4 mM (inactive).

For the compound `Nc1cc(F)nc(F)n1`, the Kd was > 4 mM (inactive).

On to `CC(C)=CCc1c2c(c3occ(-c4ccc(O)c(O)c4)c(=O)c3c1O)C=CC(C)(C)O2`, for which the Kd was > 4 mM (inactive).

With `O=[n+]1cc(C2=CC=CCC2)n([O-])c2c1CCCCC2`, the Kd was > 4 mM (inactive).

In the case of `CCOC(=O)Cn1cnc2c1c(=O)[nH]c(=O)n2C`, the Kd is > 4 mM (inactive).

On to `NC12CC3CC(C1)CC(O)(C3)C2`, for which the Kd is > 4 mM (inactive).

In the case of `Cc1c(F)cccc1NS(=O)(=O)c1ccccc1C#N`, the Kd was > 4 mM (inactive).

Consider `O=C(c1ccco1)N1CCN(Cc2cccc(F)c2)CC1`, for which the Kd was > 4 mM (inactive).

`OCCN1CCN(C(=S)c2ccc(Cl)cc2)CC1`: the Kd was > 4 mM (inactive).

For `CN1C(=O)C2CC=C(Cl)CC2C1=O` (stereo unspecified), the Kd was > 4 mM (inactive).

With `NC(=O)c1ccc(C(N)=O)c(-c2ccccc2)c1`, the Kd is > 4 mM (inactive).

Consider `COc1ccc(C)cc1S(=O)(=O)Nc1ccccc1C`, for which the Kd was > 4 mM (inactive).

As for `CN(C)C(=O)Oc1ccc(-c2nnco2)cc1`, the Kd was > 4 mM (inactive).

As to `CC(C)CCCC(C)C1CCC2C3CC(=O)[C@H]4C[C@@H](O)CC[C@]4(C)C3CC[C@]12C` (stereo partly specified), the Kd is > 4 mM (inactive).

As for `CCOC(=O)c1c(C)nc2ncccn12`, the Kd was > 4 mM (inactive).

`CC1(C)CC23C(=O)CCC(O)C2(C)CCC13` (stereo unspecified): the Kd was > 4 mM (inactive).

As to `CC(=O)O[C@H]1C[C@@H](OC(C)=O)C(C)(C)C2C[C@@H](OC(C)=O)[C@]3(C)C(CC[C@@]4(C)[C@H](c5ccoc5)OC(=O)[C@H]5O[C@]543)[C@]21C` (stereo partly specified), the Kd was > 4 mM (inactive).

Regarding `CN(C)c1oc(-c2ccccc2Cl)nc1C#N`, the Kd was > 4 mM (inactive).

With `Cc1[nH]c2ccccc2c1C=Nn1cncn1`, the Kd was > 4 mM (inactive).

Regarding `Cn1cnc([N+](=O)[O-])c1Sc1ncnc2nc[nH]c12`, the Kd was > 4 mM (inactive).

Regarding `Cn1c(=O)n(C)c2cc(C(N)=O)ccc21`, the Kd was > 4 mM (inactive).

In the case of `CCOc1ccc(C)cc1S(=O)(=O)n1ccnc1`, the Kd is > 4 mM (inactive).

On to `O=C1C2=C(SCCS2)C(=O)N1CCCO`, for which the Kd is > 4 mM (inactive).

Regarding `Nc1ccccc1C(=O)N1CCOCC1`, the Kd is > 4 mM (inactive).

Take `CSc1ccc2nnc(-c3cccnc3)n2n1`: the Kd is > 4 mM (inactive).

`Nc1nc(-c2ccccc2)ns1`: the Kd is > 4 mM (inactive).

For the compound `O=c1ccc2ccc(O)cc2o1`, the Kd was > 4 mM (inactive).

For the compound `CCC(CCC(C)[C@H]1CCC2C3CC=C4C[C@@H](O)CC[C@]4(C)C3CC[C@@]21C)C(C)C` (stereo partly specified), the Kd was > 4 mM (inactive).

Regarding `Cc1c(C(=O)Nc2ccccc2)sc(N)c1C(N)=O`, the Kd is > 4 mM (inactive).

Regarding `CNC(=S)Nc1ccc2c(c1)OCO2`, the Kd is > 4 mM (inactive).

`CC(=O)NCS(=O)(=O)c1ccc(C)cc1`: the Kd is > 4 mM (inactive).

Regarding `O=C(O)/C=C/C(=O)Nc1ccccc1C(F)(F)F`, the Kd was > 4 mM (inactive).

Turning to `O=C(O)CSCc1c(F)cccc1Cl`, the Kd is > 4 mM (inactive).

Regarding `O=C(Nc1nnc(-c2ccncc2)o1)c1cccs1`, the Kd was > 4 mM (inactive).

With `Cc1ccc(-c2cc(C(=O)N3CCCC3)no2)cc1`, the Kd was > 4 mM (inactive).

Regarding `NC(C(=O)O)C(O)C(=O)O` (stereo unspecified), the Kd was > 4 mM (inactive).

Regarding `Cc1nn2c(-c3ccncc3)nnc2c2ccccc12`, the Kd is > 4 mM (inactive).

With `Cc1cc(C)n(-c2ccc(Cl)nn2)n1`, the Kd is > 4 mM (inactive).

As to `Cc1cc(C)n(-c2ccc(N)cc2)n1`, the Kd was > 4 mM (inactive).

Consider `Clc1ccccc1OCCn1ccnc1`, for which the Kd is > 4 mM (inactive).

Take `COc1cccc(=O)c2c(C)n(C)c(C)c12`: the Kd is > 4 mM (inactive).

Take `Nc1ccc2c(c1)CCC2=O`: the Kd is > 4 mM (inactive).

`NC(=O)Cc1nc(-c2ccccc2)cs1`: the Kd was > 4 mM (inactive).

On to `Oc1cnc2ccccc2c1CN1CCOCC1`, for which the Kd is > 4 mM (inactive).

As to `O=C1CS/C(=N/N=C/c2cccs2)N1`, the Kd is > 4 mM (inactive).

For `N=C1/C(=C\c2ccco2)C(=O)N=C2SC=NN12`, the Kd is > 4 mM (inactive).

As to `CC(=O)c1ccc(-n2ccnc2)cc1`, the Kd was > 4 mM (inactive).

With `Cc1cc[n+](-c2nc([O-])sc2C=O)cc1`, the Kd is > 4 mM (inactive).

As for `CC(=O)N1CN(C(C)=O)CN(C(C)=O)C1`, the Kd was > 4 mM (inactive).

Turning to `CN1CCC(NC(=O)Cc2c(F)cccc2Cl)CC1`, the Kd was > 4 mM (inactive).

Regarding `COc1ccc2cnn(-c3ccccc3)c(=O)c2c1OC`, the Kd was > 4 mM (inactive).

Consider `CC(C)(O)[C@@H]1Cc2cc3ccc(=O)oc3cc2O1`, for which the Kd was > 4 mM (inactive).

On to `COc1cc(OC)c2c(=O)c(-c3ccccc3)coc2c1`, for which the Kd is > 4 mM (inactive).

Consider `Cc1ccccc1NC(=O)C1CCC(=O)N1` (stereo unspecified), for which the Kd was > 4 mM (inactive).

The Kd is a measure of binding affinity in units of concentration.

The values above are taken from PubChem BioAssay AID1033 (Sanford-Burnham Center for Chemical Genomics, 2008).
